Results: the supplement of paper PMC10307832

Columns and labels:
Test in all cases: relative viability (nuclei count vs DMSO), 5 days (fraction); higher = more cells survive
ALW-II-49-7 + Pemetrexed = compound: Cc1ccc(C(=O)Nc2cccc(C(F)(F)F)c2)cc1Nc1cncc(C(N)=O)c1 [ALW-II-49-7] + Nc1nc2[nH]cc(CCc3ccc(C(=O)N[C@@H](CCC(=O)O)C(=O)O)cc3)c2c(=O)[nH]1 [Pemetrexed] (partner 0.2 µM)
In short: (§1)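 Lung cancer cell lines were pin-tool dosed in 1536-well plates on the day after seeding, with either a lone drug or a fixed anchor-drug dose plus five library-drug doses (not always all listed) in √10 steps. Nuclei were counted on 4× images after 5 days. Relative viability is the ratio of treated-well to vehicle-well nuclei counts, with each value a median of duplicate plates.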

ALW-II-49-7 + Trametinib = compound: Cc1ccc(C(=O)Nc2cccc(C(F)(F)F)c2)cc1Nc1cncc(C(N)=O)c1 [ALW-II-49-7] + CC(=O)Nc1cccc(-n2c(=O)n(C3CC3)c(=O)c3c(Nc4ccc(I)cc4F)n(C)c(=O)c(C)c32)c1 [Trametinib] (partner 0.02 µM)
In short: as §1

Dasatinib + Decitabine = compound: Cc1nc(Nc2ncc(C(=O)Nc3c(C)cccc3Cl)s2)cc(N2CCN(CCO)CC2)n1 [Dasatinib] + Nc1ncn([C@H]2C[C@H](O)[C@@H](CO)O2)c(=O)n1 [Decitabine] (partner 2 µM)
In short: as §1

ALW-II-49-7 + Phenformin = compound: Cc1ccc(C(=O)Nc2cccc(C(F)(F)F)c2)cc1Nc1cncc(C(N)=O)c1 [ALW-II-49-7] + N=C(N)NC(=N)NCCc1ccccc1 [Phenformin] (partner 250 µM)
In short: as §1

Cell Line	relative viability (ALW-II-49-7 + Pemetrexed; first compound 0.08 µM)	relative viability (ALW-II-49-7 + Pemetrexed; first compound 0.253 µM)	relative viability (ALW-II-49-7 + Pemetrexed; first compound 0.8 µM)	relative viability (ALW-II-49-7 + Pemetrexed; first compound 2.53 µM)	relative viability (ALW-II-49-7 + Pemetrexed; first compound 8 µM)	relative viability (ALW-II-49-7 + Trametinib; first compound 0.08 µM)	relative viability (ALW-II-49-7 + Trametinib; first compound 0.253 µM)	relative viability (ALW-II-49-7 + Trametinib; first compound 0.8 µM)	relative viability (ALW-II-49-7 + Trametinib; first compound 2.53 µM)	relative viability (ALW-II-49-7 + Trametinib; first compound 8 µM)	relative viability (Dasatinib + Decitabine; first compound 0.005 µM)	relative viability (Dasatinib + Decitabine; first compound 0.01581 µM)	relative viability (Dasatinib + Decitabine; first compound 0.05 µM)	relative viability (Dasatinib + Decitabine; first compound 0.1581 µM)	relative viability (Dasatinib + Decitabine; first compound 0.5 µM)	relative viability (ALW-II-49-7 + Phenformin; first compound 0.08 µM)	relative viability (ALW-II-49-7 + Phenformin; first compound 0.253 µM)	relative viability (ALW-II-49-7 + Phenformin; first compound 0.8 µM)	relative viability (ALW-II-49-7 + Phenformin; first compound 2.53 µM)	relative viability (ALW-II-49-7 + Phenformin; first compound 8 µM)
NCI-H650	0.985	0.962	0.99	0.917	0.82	0.876	1.16	0.993	0.996	0.929	0.325	0.281	0.318	0.341	0.302	0.519	0.481	0.396	0.449	0.334
NCI-H1915	0.451	0.546	0.49	0.457	0.375	0.305	0.383	0.334	0.251	0.262	0.291	0.249	0.231	0.224	0.144	0.333	0.32	0.364	0.353	0.342
NCI-H2009	0.971	1.14	0.955	0.751	0.749	0.247	0.32	0.299	0.341	0.266	0.403	0.384	0.314	0.216	0.122	0.463	0.49	0.444	0.334	0.283
NCI-H1651	0.5	0.631	0.615	0.574	0.441	0.839	0.772	0.824	0.781	0.808	0.629	0.507	0.558	0.585	0.473	0.345	0.312	0.376	0.317	0.321
HOP-62	0.313	0.35	0.322	0.307	0.243	0.389	0.364	0.402	0.452	0.465	0.218	0.227	0.261	0.23	0.191	0.585	0.598	0.611	0.696	0.429
LCLC-103H	0.533	0.502	0.477	0.462	0.419	0.667	0.748	0.735	0.712	0.677	0.69	0.7	0.737	0.625	0.446	0.306	0.343	0.281	0.288	0.335
NCI-H3122	0.201	0.174	0.207	0.216	0.186	0.243	0.235	0.292	0.311	0.222	0.503	0.476	0.536	0.428	0.33	0.394	0.366	0.381		0.302
NCI-H1395	0.894	0.984	1.18		0.621	0.906	1.1	1.3		0.938	0.73	0.669	0.694	0.57	0.326	0.438	0.512	0.419	0.475	0.428
PC-14	0.15	0.165	0.13	0.138	0.113	0.722	0.826	0.717	0.683	0.665	0.301	0.258	0.215	0.186	0.0693	0.562	0.637	0.528	0.406	0.546
BEN	0.8	0.88	0.757	0.902	0.81	1.08	1.03	1.05	0.578	1.02	0.667	0.598	0.567	0.442	0.387	0.33	0.264	0.25	0.233	0.287
EPLC-272H	0.315	0.382	0.289	0.34	0.206	0.245	0.27	0.281	0.305	0.239	0.39	0.392	0.381	0.295	0.153	0.29		0.23	0.342	0.303
LK-2	0.244	0.282	0.316		0.201	0.963	0.583	0.636		0.479	0.265	0.308	0.174	0.159	0.174		0.476	0.388	0.48	0.349
ChaGo-K-1	0.266	0.274	0.263	0.268	0.262	0.889	0.939	0.919	0.847	0.85	0.545	0.5	0.543	0.49	0.416	0.48	0.584	0.465	0.46	0.401
HCC-827	0.275	0.259	0.173	0.176	0.25	0.534	0.526	0.525	0.475	0.462	0.35	0.271	0.309	0.224	0.159	0.403	0.388	0.399	0.413	0.363
NCI-H1993	0.61	0.515	0.631	0.591	0.64	0.583	0.481	0.648	0.608	0.445	0.503	0.477	0.67	0.456	0.407	0.535	0.546	0.542	0.544	0.502
NCI-H647	0.186	0.175	0.16	0.123	0.115	0.434	0.475	0.453	0.441	0.239	0.379	0.311	0.315	0.173	0.182	0.312	0.325	0.551	0.539	0.326

Cell Line	relative viability (ALW-II-49-7 + Pemetrexed; first compound 0.08 µM)	relative viability (ALW-II-49-7 + Pemetrexed; first compound 0.253 µM)	relative viability (ALW-II-49-7 + Pemetrexed; first compound 0.8 µM)	relative viability (ALW-II-49-7 + Pemetrexed; first compound 2.53 µM)	relative viability (ALW-II-49-7 + Pemetrexed; first compound 8 µM)	relative viability (ALW-II-49-7 + Trametinib; first compound 0.08 µM)	relative viability (ALW-II-49-7 + Trametinib; first compound 0.253 µM)	relative viability (ALW-II-49-7 + Trametinib; first compound 0.8 µM)	relative viability (ALW-II-49-7 + Trametinib; first compound 2.53 µM)	relative viability (ALW-II-49-7 + Trametinib; first compound 8 µM)	relative viability (Dasatinib + Decitabine; first compound 0.005 µM)	relative viability (Dasatinib + Decitabine; first compound 0.01581 µM)	relative viability (Dasatinib + Decitabine; first compound 0.05 µM)	relative viability (Dasatinib + Decitabine; first compound 0.1581 µM)	relative viability (Dasatinib + Decitabine; first compound 0.5 µM)	relative viability (ALW-II-49-7 + Phenformin; first compound 0.08 µM)	relative viability (ALW-II-49-7 + Phenformin; first compound 0.253 µM)	relative viability (ALW-II-49-7 + Phenformin; first compound 0.8 µM)	relative viability (ALW-II-49-7 + Phenformin; first compound 2.53 µM)	relative viability (ALW-II-49-7 + Phenformin; first compound 8 µM)
NCI-H522	0.909	0.874	0.958	1.07	1.01	0.883	0.665	0.867	0.82	0.853	0.745	0.767	0.671	0.655	0.61	0.678	0.667	0.687	0.576	0.732
NCI-H460	0.0507	0.0651	0.0651	0.0782	0.0738	0.133	0.17	0.142	0.118	0.101	0.568	0.444	0.352	0.29	0.286	0.425	0.414	0.561	0.559	0.372
EMC-BAC-2	0.448	0.455	0.409	0.456	0.403	0.966	0.92	0.998	0.857	0.755	0.982	0.946	0.824	0.758	0.712	0.426	0.513	0.505	0.454	0.338
NCI-H23	0.59	0.672	0.752	0.783	0.511	0.434	0.371	0.448	0.37	0.37	0.273	0.293	0.286	0.27	0.236	0.855	0.759	0.705	0.857	0.898
NCI-H1793	1.05	0.806	1.08	0.868	0.734	0.365	0.404	0.486	0.409	0.443	0.504	0.427	0.295	0.328	0.323	0.41	0.35	0.258	0.302	0.297
A-427	0.982	1.11	0.926	1.02	1.06	0.733	0.777	0.761	0.691	0.585	0.616	0.513	0.543	0.491	0.493	0.216	0.305	0.316	0.357	0.27
NCI-H322M	0.609	0.79	0.659	0.682	0.537	0.484	0.533	0.506	0.472	0.515	0.755	0.589	0.518	0.45	0.253	0.684	0.697	0.711	0.777	0.612
COR-L23	0.198	0.208	0.206	0.204	0.177	0.576	0.514	0.648	0.566	0.43	0.428	0.42	0.386	0.298	0.307	0.461	0.448	0.426	0.462	0.363
SW 900	0.449	0.492		0.517	0.316	0.864	0.869		0.727	0.874	0.46	0.39	0.398	0.413	0.23	0.397	0.542	0.549	0.703	0.534
NCI-H2085	0.867	1.01	0.913	1.01	0.854	0.534	0.512	0.477	0.562	0.518	0.616	0.424	0.385	0.264	0.25	0.754	0.639	0.677	0.889	0.693
NCI-H2087	0.637	0.679	0.673	0.606	0.621	0.214	0.211	0.228	0.189	0.188	0.301	0.336	0.259	0.145	0.113	0.526	0.459	0.488	0.467	0.445
HCC-366	0.195	0.188	0.155	0.195	0.131	0.33	0.361	0.404	0.275	0.288	0.354	0.262	0.247	0.188	0.215	0.649	0.623	0.541	0.622	0.611
NCI-H2126	0.733	0.708	0.654	0.661	0.755	0.595	0.561	0.541	0.526	0.574	0.567	0.51	0.553	0.437	0.351	0.507	0.549	0.505	0.515	0.485
SK-LU-1	0.992	1.08	1.04	0.834	0.569	0.569	0.571	0.486	0.408	0.442	0.609	0.449	0.437	0.282	0.24	0.445	0.583	0.519	0.445	0.435
HCC-78	0.888	0.846	0.91	0.884	0.891	0.867	0.702	0.633	0.572	0.78	0.615	0.608	0.599	0.429	0.326	0.718	0.745		0.677	0.633
LCLC-97TM1	0.147	0.161	0.176	0.16	0.148	0.184	0.207	0.198	0.161	0.223	0.203	0.224	0.283	0.177	0.144	0.44	0.425	0.451	0.393	0.459
